Assay results as given in patent US5660992A, “Sialic acid/fucose based assay reagents and assay methods” (Glycomed Incorporated, priority 1995, dated 1997).

Key:
[1] = test system: neutrophil migration to the peritoneal cavity; assay: Murine thioglycollate induced peritonitis model; assay type: in vivo, mice; conditions: FIG. 7; for inhibition of neutrophil migration into the peritoneum: female Swiss Webster mice, compound in tail vein, thioglycollate i.p., cells counted after three hours
Description: Mice were injected with saline alone (sal/-), thioglycollate and phosphate buffered saline (TG/PBS) or thioglycollate and GM 1221 or GM 1398 (TG/GM 1221 or TG/1398), and the number of neutrophils in the peritoneal cavity measured.
The efficaciousness of GM 1221, and GM 1398 was shown using a murine thioglycollate induced peritonitis model. The assay. materials and methods are known in the art, or are generally described by Lewinsohn, D. et al., J. Immun., 138:4313-4321 (1987), or Watson, S. et.al., Nature 349:164-166 (1991).
This assay measures the ability of the compounds to inhibit neutrophil migation to the peritoneal cavity, the migration being initiated by the presence of thioglycollate in the peritoneal cavity. Thioglycollate is a known and effective inflammatory agent that causes neutrophil migration into the mouse peritoneum when it is administered intraperitoneally. Lewinsohn, D. et al., J. Immun. (1987) 138:4313-4321.
Briefly, female Swiss Webster mice weighing about 25 grams were injected in the tail vein with 200 ul of phosphate buffered saline (PBS) with or without the appropriate compound. The pH of the solutions was adjusted to neutrality by the addition of either NaOH or HCL and sterilized by filtration through a 0.2 u filter.
Immediately following injection with the appropriate compound or PBS, the mice were injected intraperitoneally with 1 ml of thioglycollate medium prepared as described by the manufacturer, BBL. Three hours following injection of the thioglycollate solution the mice were sacrificed by CO2 asphyxiation, and the number of cells in the peritoneum removed by lavage with 5 ml of heparinized (5 U/ml) 0.9% sodium chloride solution containing 0.1% bovine serum albumin. Cell number was determined using a Coulter Counter. The cells were prepared for counting by diluting the lavage fluid with 1:50 of a commercial physiological isotonic solution, Isoton II, and the cells-lysed by adding S/P Lysing and Hemoglobin Reagent (1:100 final dilution). Cell nuclei were counted in a sized window with lower and upper limits set at 3.9 and 5.7 um, respectively.

L-selectin IgG chimera = target: T1, L-selectin IgG chimera (Homo sapiens, UniProt P14151); assay: ELISA: blocking of L-selectin IgG chimera binding to 2,3sLex glycolipid; conditions: FIG. 5 and FIG. 6; several concentrations
T1 sequence (P14151 39-332 limits assumed): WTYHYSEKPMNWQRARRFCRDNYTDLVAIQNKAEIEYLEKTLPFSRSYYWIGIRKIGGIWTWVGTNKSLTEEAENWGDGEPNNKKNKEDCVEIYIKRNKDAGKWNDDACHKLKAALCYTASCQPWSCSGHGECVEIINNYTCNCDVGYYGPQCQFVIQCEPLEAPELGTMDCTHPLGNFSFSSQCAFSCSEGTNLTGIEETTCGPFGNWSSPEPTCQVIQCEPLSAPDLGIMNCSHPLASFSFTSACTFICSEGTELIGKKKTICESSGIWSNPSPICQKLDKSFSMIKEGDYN
Source text: FIG. 5 is a graph showing the results of Elisa assays carried out to determine the ability of three different compounds to block the binding of 2,3,sialyl-Le^x to L-selectin IgG chimera. The compounds tested were GM 1222, GM 1279 and GM 1398. The results are expressed as per cent of control binding.
FIG. 6 is a graph showing the results of Elisa assays carried out to determine the ability of GM 1221 to block the binding of 2,3,sialyl-Le^x to L-selectin IgG chimera. The results are expressed as per cent of control binding.
An ELISA assay was employed that uses recombinant fusion proteins composed of extracellular portions of the human selectins joined to human immunoglobulin heavy chain CH3, CH2, and hinge regions. See, for example, Walz et al., Science (1990) 250:1132; Aruffo et al., Cell (1991) 67:35; Aruffo et al., Proc. Natl. Acad. Sci. USA (1992) 89:2292. […]
The positive control is the signal produced by the soluble receptor when it is allowed to react with 2,3sLex glycolipid in the microtiter wells in the absence of any inhibitor. […] The signal produced by the receptor that had been previously treated with an inhibitor (recorded as O.D.), was divided by the signal produced by the positive control and multiplied by 100 to calculate the % receptor bound to the well, or as expressed in the figures, the per cent of control binding. […]

Structure (SMILES)	inhibition of neutrophil migration into the peritoneum [1]	additional inhibition of neutrophil migration relative to GM 1221 ([1]; same mouse peritonitis model, comparison with GM 1221)	inhibition of L-selectin binding to 2,3sLex glycolipid (per cent of control binding) (L-selectin IgG chimera)
CC(=O)N[C@H]1[C@H]([C@H](O)[C@H](O)CO)O[C@@](OCCCCCCO[C@@H]2O[C@@H](C)[C@@H](O)[C@@H](O)[C@@H]2O)(C(=O)O)C[C@@H]1O [GM 1398, 1-O-α-Neu5Ac-(6-O-α-L-Fucopyranosyl)-Hexane]	inhibit neutrophil migration into the peritoneum	about 30%	–
CC(OCCCCCCOC1O[C@@H](C)[C@@H](O)[C@@H](O)[C@@H]1O)C(=O)O (stereo partly shown) [GM 1221]	inhibit neutrophil migration into the peritoneum	–	inhibits L-selectin binding
